Like-named read-outs stand apart in the source and are kept apart here.

One data set concerns the target T1, UreA wt (Aspergillus nidulans, UniProt Q5BGB2).
T1 sequence (Q5BGB2 1-693): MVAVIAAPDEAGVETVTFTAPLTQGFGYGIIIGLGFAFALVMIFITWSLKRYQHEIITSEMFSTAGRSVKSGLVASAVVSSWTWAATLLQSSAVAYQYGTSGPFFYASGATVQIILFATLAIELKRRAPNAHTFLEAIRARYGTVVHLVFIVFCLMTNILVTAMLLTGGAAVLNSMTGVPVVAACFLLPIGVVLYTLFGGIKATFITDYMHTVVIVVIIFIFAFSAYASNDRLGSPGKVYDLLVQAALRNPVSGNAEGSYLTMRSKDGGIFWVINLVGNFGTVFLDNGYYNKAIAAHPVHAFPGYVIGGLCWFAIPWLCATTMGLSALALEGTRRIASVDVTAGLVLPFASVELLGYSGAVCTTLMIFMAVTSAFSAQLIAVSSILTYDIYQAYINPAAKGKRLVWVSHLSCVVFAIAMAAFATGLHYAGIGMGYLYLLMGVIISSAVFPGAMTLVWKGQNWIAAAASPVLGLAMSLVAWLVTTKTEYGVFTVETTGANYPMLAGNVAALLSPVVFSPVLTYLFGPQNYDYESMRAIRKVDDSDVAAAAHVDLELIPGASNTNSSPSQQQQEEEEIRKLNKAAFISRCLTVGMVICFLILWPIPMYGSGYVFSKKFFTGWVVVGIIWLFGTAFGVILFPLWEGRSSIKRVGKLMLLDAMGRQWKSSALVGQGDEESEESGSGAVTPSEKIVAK
Briefly: [14C]-urea uptake in germinating conidiospores, wt UreA. Type of data set: cell-based. Conditions: allele wt; for Ki: inhibition of [14C]-urea uptake, Ki from IC50. The method, then:
(§1) Radiolabelled [^14C]-urea (55.0 mCi mmol^−1) was purchased from Moravek Biochemicals, Brea, CA, USA. [^14C]-urea uptake assays were performed in A. nidulans germinating conidiospores. Initial velocities were measured after 2 min of incubation at 37 °C with a [^14C]-urea concentration of 1.0 μΜ, and are expressed as % of the wt value, in pmoles min^−1/10^7 conidiospores. Apparent Km/i values were obtained directly by performing and analyzing [^14C]-urea uptakes (Prism 3.02: Graph Pad Software, Inc., San Diego, CA, USA), from IC50 values in the presence of various concentrations (0.5–3000 μM) of non-labelled substrates, as previously described. […] The Ki values are then calculated from IC50 values, based on the equation: Ki = IC50/[1 + (S/Km)] […] Transport assays were carried out in at least three independent experiments, in triplicates for each concentration or time point. Background uptake values were corrected by subtracting values measured in the deleted mutants (UreAΔ).

A further data set concerns the target T2, UreA W82Y (Aspergillus nidulans, UniProt Q5BGB2, W82Y).
T2 sequence (Q5BGB2 1-693 W82Y): T1 sequence (Q5BGB2 1-693)
Briefly: [14C]-urea uptake in germinating conidiospores, UreA W82Y mutant. Conditions: for Vo (%) initial uptake rate: allele W82Y, % of wt, [14C]-urea 1.0 μM, 2 min, 37 °C. How it is done: as §1

Another data set has as its target T3, UreA W84Y (Aspergillus nidulans, UniProt Q5BGB2, W84Y).
T3 sequence (Q5BGB2 1-693 W84Y): T1 sequence (Q5BGB2 1-693)
Briefly: [14C]-urea uptake in germinating conidiospores, UreA W84Y mutant. The method, then: as §1

The test system of a further data set is UreA W82F. Conditions: cited from earlier work; for affinity relative to wt (in words): allele W82F vs wt, ref [16].
A further data set has as its target T4, UreA T282S (Aspergillus nidulans, UniProt Q5BGB2, T282S).
T4 sequence (Q5BGB2 1-693 T282S): T1 sequence (Q5BGB2 1-693)
Briefly: [14C]-urea uptake in germinating conidiospores, UreA T282S mutant. Conditions: for fold drop in affinity: allele T282S vs wt; for Vo (%) initial uptake rate: allele T282S, % of wt, [14C]-urea 1.0 μM, 2 min, 37 °C. How it is done:
as §1

A further data set deals with T5, UreA T282A (Aspergillus nidulans, UniProt Q5BGB2, T282A).
T5 sequence (Q5BGB2 1-693 T282A): T1 sequence (Q5BGB2 1-693)
Briefly: [14C]-urea uptake in germinating conidiospores, UreA T282A mutant. Conditions: for Vo (%) initial uptake rate: allele T282A, % of wt, [14C]-urea 1.0 μM, 2 min, 37 °C. The method, then:
as §1

In a further data set the target is T6, UreA W84F (Aspergillus nidulans, UniProt Q5BGB2, W84F).
T6 sequence (Q5BGB2 1-693 W84F): T1 sequence (Q5BGB2 1-693)
Briefly: [14C]-urea uptake in germinating conidiospores, UreA W84F mutant. How it is done: as §1

The target in a further data set is T7, UreA W84A (Aspergillus nidulans, UniProt Q5BGB2, W84A).
T7 sequence (Q5BGB2 1-693 W84A): T1 sequence (Q5BGB2 1-693)
Briefly: [14C]-urea uptake in germinating conidiospores, UreA W84A mutant. The method, then:
as §1

The target in the next data set is T8, UreA N279A (Aspergillus nidulans, UniProt Q5BGB2, N279A).
T8 sequence (Q5BGB2 1-693 N279A): T1 sequence (Q5BGB2 1-693)
Briefly: [14C]-urea uptake in germinating conidiospores, UreA N279A mutant. The method, then: as §1

The next data set deals with T9, UreA N279Q (Aspergillus nidulans, UniProt Q5BGB2, N279Q).
T9 sequence (Q5BGB2 1-693 N279Q): T1 sequence (Q5BGB2 1-693)
Briefly: [14C]-urea uptake in germinating conidiospores, UreA N279Q mutant. Conditions: for Vo (%) initial uptake rate: allele N279Q, % of wt, [14C]-urea 1.0 μM, 2 min, 37 °C. How it is done: as §1

The test system of the next data set is NC(N)=O. Briefly: cells, lysate or membranes. Conditions: 37.0 °C.

Description for NC(N)=O: [^14C]-urea uptake assays were performed in A. nidulans germinating conidiospores. Initial velocities were measured after 2 min of incubation at 37 °C with a [^14C]-urea concentration of 1.0 μΜ, and are expressed as % of the wt value, in pmoles min^−1/10^7 conidiospores. Apparent Km/i values were obtained directly by performing and analyzing [^14C]-urea uptakes (Prism 3.02: Graph Pad Software, Inc., San Diego, CA, USA), from IC50 values in the presence of various concentrations (0.5–3000 μM) of non-labelled substrates, as previously described [4, 16, 58]. […] The Ki values are then calculated from IC50 values, based on the equation: Ki = IC50/[1 + (S/Km)] […] Transport assays were carried out in at least three independent experiments, in triplicates for each concentration or time point. Background uptake values were corrected by subtracting values measured in the deleted mutants (UreAΔ). Standard deviation was <20%.

A word on the Ki: it is the equilibrium dissociation constant of an inhibitor or competing ligand from its target. On to `CC(N)=O` [Acetamide, acetamide], for which the Ki was 237 ± 14 µM on UreA wt (read-out: Acetamide Ki); 101 ± 16 µM on UreA W82Y; greater than 1000 µM at UreA W84Y; 198 ± 12 µM at UreA W82F (allele W82F, ref Sanguinetti et al. (2014) [8], read-out: Acetamide Ki); 290 ± 12 µM on UreA T282S; 361 ± 85 µM on UreA T282A. In addition, the Ki came to 524 ± 42 µM at UreA W84F, 489 ± 39 µM at UreA W84A, 51 ± 5 µM on UreA N279A and 87 ± 9 µM at UreA N279Q. Further, the “affinity relative to wt (in words)” value in the data set on UreA W82F was “augmented”. For the same compound, the “fold decrease in affinity” value at UreA T282A (allele T282A vs wt) came to 1.6 fold. The “Ki fold lower as compared to the wt” value on UreA N279A (allele N279A vs wt) is on record as “≈ 4.6 fold”; on UreA N279Q (allele N279Q vs wt), “≈ 2.7 fold”.

For the compound `NC(N)=S` [Thiourea, 2-thiourea], the inhibition constant (Ki) on UreA wt (read-out: Thiourea Ki) is 528 ± 42 µM; on UreA W82Y, greater than 1000 µM; at UreA W84Y, greater than 2000 µM; on UreA W82F (allele W82F, ref Sanguinetti et al. (2014) [8], read-out: Thiourea Ki) it was 447 ± 24 µM; on UreA T282S it was greater than 1000 µM; at UreA T282A, greater than 1000 µM. Moreover, the Ki is greater than 2000 µM at UreA W84F, greater than 2000 µM on UreA W84A, greater than 1000 µM on UreA N279A and 813 ± 59 µM at UreA N279Q. The “affinity relative to wt (in words)” value with UreA W82F is “augmented”. Also, at UreA T282S, the “fold drop in affinity” value was greater than 2 fold. Moreover, the “fold decrease in affinity” value on UreA T282A (allele T282A vs wt) worked out at 2 fold. Moreover, the “affinity fold lower than that of the wt” value at UreA N279Q (allele N279Q vs wt) came out at 1.5 fold.

A word on the Km: it is the concentration of substrate that gives half-maximal velocity. Regarding `NC(N)=O` [Urea, urea], the “Vo (%) initial uptake rate” value on UreA wt (% of wt, [14C]-urea 1.0 μM, 2 min, 37 °C) is listed as 100%; at UreA W82Y, 25 ± 2%; on UreA W82Y (listed as urea) it was “≈ 25%”; at UreA W84Y (allele W84Y, % of wt, [14C]-urea 1.0 μM, 2 min, 37 °C), 46 ± 4%; in the data set with UreA W82F (allele W82F, % of wt, ref Sanguinetti et al. (2014) [8]) it was 50 ± 8%; on UreA T282S, 65 ± 3%. Besides, the “Vo (%) initial uptake rate” value is “≈ 65%” on UreA T282S (listed as urea); 14 ± 2% at UreA T282A; 14% on UreA T282A (listed as urea); 15 ± 2% on UreA W84F (allele W84F, % of wt, [14C]-urea 1.0 μM, 2 min, 37 °C); 20 ± 2% on UreA W84A (allele W84A, % of wt, [14C]-urea 1.0 μM, 2 min, 37 °C); 100 ± 5% on UreA N279A (allele N279A, % of wt, [14C]-urea 1.0 μM, 2 min, 37 °C). The “Vo (%) initial uptake rate” value was 70 ± 3% on UreA N279Q and “≈ 70%” on UreA N279Q (listed as urea). Besides, at UreA W82Y (allele W82Y vs wt), the “drop in urea affinity” value was “≈ 50%”. In the data set on UreA W82F, the “affinity relative to wt (in words)” value is recorded as “unchanged”. For the same compound, the Michaelis-Menten constant (Km) with UreA W82F (allele W82F, ref Sanguinetti et al. (2014) [8]) is 23 ± 5 µM. The “fold drop in affinity” value on UreA T282S worked out at 5 fold. Further, the “Km fold lower than that of the wt” value on UreA T282A (allele T282A vs wt) was 3 fold. Also, on UreA N279Q (allele N279Q vs wt), the “affinity fold lower than that of the wt” value came out at 3.5 fold.

As to `N=C(N)N` [guanidine], the “affinity relative to wt (in words)” value with UreA W82F is given as “augmented”.

Consider “UreA N279A (Aspergillus nidulans FGSC A4; N279A)”, for which the Km with NC(N)=O (other: allele N279A) amounted to 30 ± 3 µM.

For the compound “UreA N279Q (Aspergillus nidulans FGSC A4; N279Q)”, the Km in the data set on NC(N)=O (other: allele N279Q) was 91 ± 6 µM.

Consider “UreA T282A (Aspergillus nidulans FGSC A4; T282A)”, for which the Michaelis constant (Km) with NC(N)=O (other: allele T282A) is listed as 80 ± 27 µM.

Consider “UreA T282S (Aspergillus nidulans FGSC A4; T282S)”, for which the Km in the data set with NC(N)=O (other: allele T282S) is listed as 130 ± 22 µM.

Take “UreA W82Y (Aspergillus nidulans FGSC A4; W82Y)”: the Michaelis constant (Km) with NC(N)=O (other: allele W82Y) was determined as 42 ± 5 µM.

For “UreA W84A (Aspergillus nidulans FGSC A4; W84A)”, in the data set with NC(N)=O (other: allele W84A), the Michaelis-Menten constant (Km) was determined as 193 ± 12 µM.

As to “UreA W84F (Aspergillus nidulans FGSC A4; W84F)”, in the data set on NC(N)=O (other: allele W84F), the Km is 96 ± 13 µM.

For “UreA W84Y (Aspergillus nidulans FGSC A4; W84Y)”, in the data set with NC(N)=O (other: allele W84Y), the Michaelis-Menten constant (Km) is 159 ± 11 µM.

Source of the values: article PMC9783183, “Substrate Recognition Properties from an Intermediate Structural State of the UreA Transporter” (International Journal of Molecular Sciences, 2022).
